Reference: US20230233567A1, “BELVARAFENIB FOR USE IN CANCER TREATMENT” (Hanmi Pharm. Co., Ltd., priority 2020, published 2023)
Like-named read-outs stand apart in the source and are kept apart here.

Tests used:
BRAF = BRAF (Homo sapiens, UniProt P15056); assay: In vitro kinase assay; format: biochemical
Experimental: (§1) The in vitro kinase inhibitory selectivity and activity of belvarafenib were evaluated in a kinase panel assay against 189 kinases and a subsequent confirmatory assay against selected kinases by using Z′-Lyte® biochemical assay, Lantha® binding assay and Adapter® assay.

BRAF^V599E = BRAF^V599E (Homo sapiens, UniProt P15056, V600E); assay: In vitro kinase assay; format: biochemical; details: read-out: inhibition of enzymatic activity, BRAF^V599E
Experimental: as §1

CSF1R (FMS) = CSF1R (FMS) (Homo sapiens, UniProt P07333); assay: In vitro kinase assay; format: biochemical
Experimental: as §1

DDR1 = DDR1 (Homo sapiens, UniProt Q08345); assay: In vitro kinase assay; format: biochemical
Experimental: as §1

DDR2 = target: T1, DDR2 (Homo sapiens, UniProt Q16832); assay: In vitro kinase assay; format: biochemical
T1 sequence (Q16832 22-855): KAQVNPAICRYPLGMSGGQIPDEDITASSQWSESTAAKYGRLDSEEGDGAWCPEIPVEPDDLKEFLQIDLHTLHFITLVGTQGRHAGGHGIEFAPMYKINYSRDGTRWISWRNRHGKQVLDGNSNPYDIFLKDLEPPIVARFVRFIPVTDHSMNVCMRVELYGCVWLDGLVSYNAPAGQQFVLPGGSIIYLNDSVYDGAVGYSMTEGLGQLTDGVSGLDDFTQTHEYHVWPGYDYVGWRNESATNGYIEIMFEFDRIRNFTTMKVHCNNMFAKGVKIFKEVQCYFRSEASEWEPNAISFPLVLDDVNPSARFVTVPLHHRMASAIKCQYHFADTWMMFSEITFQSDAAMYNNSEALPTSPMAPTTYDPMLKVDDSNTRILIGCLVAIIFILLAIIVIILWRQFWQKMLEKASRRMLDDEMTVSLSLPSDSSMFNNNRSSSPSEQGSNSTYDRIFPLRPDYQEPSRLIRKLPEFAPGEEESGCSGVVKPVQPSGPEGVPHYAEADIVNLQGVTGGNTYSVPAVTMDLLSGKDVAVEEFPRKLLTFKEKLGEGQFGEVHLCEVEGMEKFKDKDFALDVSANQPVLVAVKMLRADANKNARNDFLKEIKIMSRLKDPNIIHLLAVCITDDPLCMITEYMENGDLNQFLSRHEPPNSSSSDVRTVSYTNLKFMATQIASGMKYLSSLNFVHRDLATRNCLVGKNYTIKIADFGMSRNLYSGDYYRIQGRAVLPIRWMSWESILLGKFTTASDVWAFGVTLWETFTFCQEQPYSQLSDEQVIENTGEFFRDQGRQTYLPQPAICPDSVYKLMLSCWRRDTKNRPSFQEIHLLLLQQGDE
Experimental: as §1

RAF-1 (CRAF) Y340D Y341D = RAF-1 (CRAF) Y340D Y341D (Homo sapiens, UniProt P04049, Y340D/Y341D); assay: In vitro kinase assay; format: biochemical
Experimental: as §1

SK-MEL-28 (BRAF^V600E) = assay: In vitro cell growth inhibition, melanoma; format: cell-based; details: Homo sapiens, mean ± SD, n = 3
SK-MEL-2 (NRAS^Q61R) = assay: In vitro cell growth inhibition, melanoma; format: cell-based; details: Homo sapiens, mean ± SD, n = 3
Experimental: (§2) A G150 of 69, 57, 53, and 24 nM were determined for SK-MEL-28, A375, SK-MEL-2, and SK-MEL-30 cell lines, respectively.

SK-MEL-30 (NRAS^Q61K) = assay: In vitro cell growth inhibition, melanoma; format: cell-based; details: Homo sapiens, mean ± SD, n = 3
Experimental: as §2

[1] = tested on: MEK and ERK phosphorylation in HCT116 (KRAS^G13D) cells; assay: Inhibition of MEK and ERK phosphorylation, KRAS mutant; format: cell-based; details: Homo sapiens, HCT-116, CRC HCT116, KRAS G13D, 2 hr treatment
Lovo (KRAS^G13D) = assay: In vitro cell growth inhibition, CRC; format: cell-based; details: Homo sapiens
NPA (BRAF^V600E) = assay: In vitro cell growth inhibition, thyroid cancer; format: cell-based
CAL-62 (KRAS^G12R) = assay: In vitro cell growth inhibition, thyroid cancer; format: cell-based; details: Homo sapiens

Sequence of DDR1 (Q08345 19-913): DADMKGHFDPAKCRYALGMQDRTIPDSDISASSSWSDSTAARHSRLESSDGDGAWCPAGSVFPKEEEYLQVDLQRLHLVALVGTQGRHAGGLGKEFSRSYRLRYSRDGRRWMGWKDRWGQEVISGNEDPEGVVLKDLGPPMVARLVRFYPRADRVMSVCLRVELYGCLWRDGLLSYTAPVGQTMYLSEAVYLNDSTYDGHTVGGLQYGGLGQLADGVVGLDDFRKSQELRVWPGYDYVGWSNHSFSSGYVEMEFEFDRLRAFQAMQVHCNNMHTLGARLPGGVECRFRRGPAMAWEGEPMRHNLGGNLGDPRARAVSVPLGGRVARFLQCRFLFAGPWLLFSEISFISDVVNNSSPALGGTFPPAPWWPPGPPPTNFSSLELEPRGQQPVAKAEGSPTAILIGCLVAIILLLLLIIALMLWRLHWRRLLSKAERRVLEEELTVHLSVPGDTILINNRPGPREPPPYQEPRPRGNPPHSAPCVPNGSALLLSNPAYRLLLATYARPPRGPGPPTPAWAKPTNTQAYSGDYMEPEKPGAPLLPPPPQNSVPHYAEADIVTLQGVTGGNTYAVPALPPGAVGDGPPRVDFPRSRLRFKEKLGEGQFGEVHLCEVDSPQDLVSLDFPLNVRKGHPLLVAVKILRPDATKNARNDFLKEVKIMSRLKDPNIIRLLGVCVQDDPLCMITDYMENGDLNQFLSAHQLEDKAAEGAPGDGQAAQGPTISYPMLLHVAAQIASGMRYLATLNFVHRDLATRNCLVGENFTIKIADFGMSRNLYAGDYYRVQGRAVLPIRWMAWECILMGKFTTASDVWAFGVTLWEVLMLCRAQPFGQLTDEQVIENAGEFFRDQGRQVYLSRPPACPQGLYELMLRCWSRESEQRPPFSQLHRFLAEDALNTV
Sequence of RAF-1 (CRAF) Y340D Y341D (P04049 whole entry Y340D/Y341D): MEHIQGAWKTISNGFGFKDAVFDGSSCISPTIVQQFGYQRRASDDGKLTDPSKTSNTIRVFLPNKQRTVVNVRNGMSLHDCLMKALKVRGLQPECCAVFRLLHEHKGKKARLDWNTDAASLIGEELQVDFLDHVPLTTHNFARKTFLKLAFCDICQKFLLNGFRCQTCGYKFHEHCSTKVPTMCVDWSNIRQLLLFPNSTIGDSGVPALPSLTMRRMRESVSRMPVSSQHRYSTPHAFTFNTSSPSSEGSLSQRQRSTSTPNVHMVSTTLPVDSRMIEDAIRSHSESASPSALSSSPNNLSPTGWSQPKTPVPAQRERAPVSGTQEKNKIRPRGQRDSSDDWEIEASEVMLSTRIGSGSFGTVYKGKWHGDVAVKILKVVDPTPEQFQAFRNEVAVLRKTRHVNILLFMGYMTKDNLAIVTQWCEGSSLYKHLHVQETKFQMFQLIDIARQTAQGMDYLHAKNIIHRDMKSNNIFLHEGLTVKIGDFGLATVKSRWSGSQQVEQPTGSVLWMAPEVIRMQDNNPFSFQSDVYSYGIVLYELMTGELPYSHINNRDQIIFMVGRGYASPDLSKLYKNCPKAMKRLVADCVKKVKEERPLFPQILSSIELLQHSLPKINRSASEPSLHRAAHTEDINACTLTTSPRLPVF
Sequence of BRAF (P15056 whole entry): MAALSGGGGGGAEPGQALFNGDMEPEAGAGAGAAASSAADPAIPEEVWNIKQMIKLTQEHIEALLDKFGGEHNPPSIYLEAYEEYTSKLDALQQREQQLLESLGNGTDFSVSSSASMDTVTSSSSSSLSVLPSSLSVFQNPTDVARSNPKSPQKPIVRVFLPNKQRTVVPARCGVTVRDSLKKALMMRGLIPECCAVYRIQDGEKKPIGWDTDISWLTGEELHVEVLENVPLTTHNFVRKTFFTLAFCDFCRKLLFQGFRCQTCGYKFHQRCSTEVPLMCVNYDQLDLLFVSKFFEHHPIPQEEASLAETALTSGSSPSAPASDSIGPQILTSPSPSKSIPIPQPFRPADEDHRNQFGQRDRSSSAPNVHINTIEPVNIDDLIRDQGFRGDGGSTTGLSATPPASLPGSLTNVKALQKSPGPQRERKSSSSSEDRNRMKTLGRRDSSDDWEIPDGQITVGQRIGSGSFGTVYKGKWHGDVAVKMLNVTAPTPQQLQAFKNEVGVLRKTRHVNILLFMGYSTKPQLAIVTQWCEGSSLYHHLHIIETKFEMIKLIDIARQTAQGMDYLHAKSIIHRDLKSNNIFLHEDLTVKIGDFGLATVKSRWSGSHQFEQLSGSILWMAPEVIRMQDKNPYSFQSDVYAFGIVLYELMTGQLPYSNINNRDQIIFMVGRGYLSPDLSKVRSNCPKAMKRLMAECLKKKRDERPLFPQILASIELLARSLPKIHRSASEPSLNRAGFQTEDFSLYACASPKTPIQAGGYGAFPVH
Sequence of CSF1R (FMS) (P07333 20-972): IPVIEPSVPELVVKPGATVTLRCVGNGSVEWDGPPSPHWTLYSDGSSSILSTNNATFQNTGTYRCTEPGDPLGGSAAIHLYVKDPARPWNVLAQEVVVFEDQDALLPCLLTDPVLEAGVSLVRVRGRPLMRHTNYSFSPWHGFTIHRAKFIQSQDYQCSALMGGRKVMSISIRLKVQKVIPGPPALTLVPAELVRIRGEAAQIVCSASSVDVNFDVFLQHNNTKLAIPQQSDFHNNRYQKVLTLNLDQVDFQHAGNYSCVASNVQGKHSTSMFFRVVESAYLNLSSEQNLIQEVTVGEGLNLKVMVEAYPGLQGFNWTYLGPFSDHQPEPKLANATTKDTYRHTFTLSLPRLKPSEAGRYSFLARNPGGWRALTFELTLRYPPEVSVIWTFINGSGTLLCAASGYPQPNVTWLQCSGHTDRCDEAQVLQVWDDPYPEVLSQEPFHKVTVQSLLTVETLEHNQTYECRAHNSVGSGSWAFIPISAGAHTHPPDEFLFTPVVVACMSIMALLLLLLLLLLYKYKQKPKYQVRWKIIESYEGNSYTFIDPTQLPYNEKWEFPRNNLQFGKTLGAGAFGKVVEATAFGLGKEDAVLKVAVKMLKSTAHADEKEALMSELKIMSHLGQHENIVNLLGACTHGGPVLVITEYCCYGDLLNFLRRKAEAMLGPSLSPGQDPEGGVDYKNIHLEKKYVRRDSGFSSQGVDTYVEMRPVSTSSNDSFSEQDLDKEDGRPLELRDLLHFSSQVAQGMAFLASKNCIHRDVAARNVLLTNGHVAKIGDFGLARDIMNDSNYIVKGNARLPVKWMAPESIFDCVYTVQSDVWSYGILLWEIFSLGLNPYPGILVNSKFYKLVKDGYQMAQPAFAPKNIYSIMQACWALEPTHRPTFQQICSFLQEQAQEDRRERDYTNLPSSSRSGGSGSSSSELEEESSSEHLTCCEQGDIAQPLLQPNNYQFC
Sequence of BRAF^V599E (P15056 416-766 V600E limits assumed): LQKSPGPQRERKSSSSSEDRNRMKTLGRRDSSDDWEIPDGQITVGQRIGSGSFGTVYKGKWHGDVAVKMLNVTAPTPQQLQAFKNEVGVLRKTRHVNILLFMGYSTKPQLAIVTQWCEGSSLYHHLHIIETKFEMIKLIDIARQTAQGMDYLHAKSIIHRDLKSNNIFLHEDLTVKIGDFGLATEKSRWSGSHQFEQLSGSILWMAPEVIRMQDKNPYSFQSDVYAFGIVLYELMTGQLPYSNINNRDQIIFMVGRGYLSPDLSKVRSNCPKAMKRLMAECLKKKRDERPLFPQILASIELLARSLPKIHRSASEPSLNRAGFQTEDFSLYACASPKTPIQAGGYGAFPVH

Molecule `Cc1ccc2c(Nc3cccc(Cl)c3F)nccc2c1NC(=O)c1csc2c(N)ncnc12` [Belvarafenib] has an inhibition at 1 µM (BRAF; at 1 μM, read-out: inhibition of enzymatic activity, BRAF) of over 90%, an IC50 (BRAF; confirmatory assay) of 0.041 µM and an inhibition at 1 µM (BRAF^V599E) of over 90%. The inhibition at 1 µM (CSF1R (FMS); at 1 μM, read-out: inhibition of enzymatic activity, CSF1R (FMS)) was over 90%, the IC50 (CSF1R (FMS); confirmatory assay) was 0.044 µM and the inhibition at 1 µM (DDR1; at 1 μM, read-out: inhibition of enzymatic activity, DDR1) was over 90%. It also gave an IC50 (DDR1; confirmatory assay) of 0.077 µM, an inhibition at 1 µM (DDR2; at 1 μM, read-out: inhibition of enzymatic activity, DDR2) of over 90% and an IC50 (DDR2; confirmatory assay) of 0.182 µM. It also gave an inhibition at 1 µM (RAF-1 (CRAF) Y340D Y341D; at 1 μM, read-out: inhibition of enzymatic activity, RAF-1 (CRAF) Y340D Y341D) of over 90%, an IC50 (RAF-1 (CRAF) Y340D Y341D; confirmatory assay) of 0.002 µM and a GI50 (SK-MEL-28 (BRAF^V600E)) of 0.069 µM. The GI50 (SK-MEL-2 (NRAS^Q61R)) was 0.053 µM, the GI50 (SK-MEL-30 (NRAS^Q61K)) was 0.024 µM and the IC50 ([1]; read-out: IC50 pERK) was 0.253 µM. For the same molecule, the IC50 ([1]; read-out: IC50 pMEK) was 2.7 µM, the GI50 (Lovo (KRAS^G13D)) was 0.051 µM and the GI50 (NPA (BRAF^V600E)) was 0.045 µM. The GI50 (CAL-62 (KRAS^G12R)) was 0.479 µM.
